Several values for one entry are separate records, joined by “and”; a condition that tells them apart may be missing. Equal entries are not always repeated.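 Each compound was tested at five concentrations against cells in 96-well plates for 48 hours. GI50 = concentration required for 50% inhibition of growth. TGI denotes the concentration required for complete inhibition of growth.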
Legend:
Experiment in all cases: NCI-60 cell line screen, 48 h
HOP-92 NSCLC = tested on: HOP-92 NSCLC
EKVX NSCLC = tested on: EKVX NSCLC
A498 renal = tested on: A498 renal
MALME-3M melanoma = tested on: MALME-3M melanoma
SF-295 CNS = tested on: SF-295 CNS
MOLT-4 leukemia = tested on: MOLT-4 leukemia
LOX IMVI melanoma = tested on: LOX IMVI melanoma
UO-31 renal = tested on: UO-31 renal
UACC-257 melanoma = tested on: UACC-257 melanoma
OVCAR-8 ovarian = tested on: OVCAR-8 ovarian

Row | Compound | GI50 (HOP-92 NSCLC) | TGI (HOP-92 NSCLC) | GI50 (EKVX NSCLC) | TGI (EKVX NSCLC) | GI50 (A498 renal) | TGI (A498 renal) | GI50 (MALME-3M melanoma) | TGI (MALME-3M melanoma) | GI50 (SF-295 CNS) | TGI (SF-295 CNS) | GI50 (MOLT-4 leukemia) | TGI (MOLT-4 leukemia) | GI50 (LOX IMVI melanoma) | TGI (LOX IMVI melanoma) | GI50 (UO-31 renal) | TGI (UO-31 renal) | GI50 (UACC-257 melanoma) | TGI (UACC-257 melanoma) | GI50 (OVCAR-8 ovarian) | TGI (OVCAR-8 ovarian)
1 | Nc1c(C(=O)N/N=C/c2ccc(-c3cc(Cl)c(Cl)cc3Cl)o2)cnn1-c1ccnc2c(C(F)(F)F)cccc12 | 2.57 µM | 7 µM | 3.09 µM | 49.1 µM | 3.89 µM | 37.7 µM | 2.66 µM | 10.6 µM | 3.27 µM | > 100 µM | 2.91 µM | > 100 µM | 4.37 µM | > 100 µM | 3.49 µM | > 100 µM |  |  |  | 
2 | O=c1oc2c3ccc4cnccc4c3[nH]c2c2ccccc12 | 10.2 µM | 35 µM | 76.5 µM | > 100 µM | 95.5 µM | > 100 µM | 18.9 µM | 45.1 µM | 41.7 µM | > 100 µM | 4.83 µM | 25.4 µM | 12.1 µM | 28.2 µM | 22.9 µM | > 100 µM | 20.3 µM | 57.6 µM | 16.1 µM | > 100 µM
3 | O=C(COc1cccc(/C=C2\Oc3ccc4ccccc4c3C2=O)c1)c1ccc(Cl)cc1 | > 100 µM | > 100 µM | > 100 µM | > 100 µM | > 100 µM | > 100 µM | 22.4 µM | > 100 µM | > 100 µM | > 100 µM | 3.13 µM | 11.1 µM | 8.7 µM | 21.9 µM | 50.2 µM | > 100 µM | > 100 µM | > 100 µM | 15.4 µM | 41.9 µM
4 | O=C(Nc1ccc(Br)cc1)C(=O)C(C(=O)c1ccccc1F)C1OC(=O)c2ccccc21 (centres undefined) |  | 65.2 µM |  | > 100 µM |  | > 100 µM |  | 88.6 µM |  |  |  | 92.8 µM |  | 44.9 µM |  | 56.6 µM |  | > 100 µM |  | 70.3 µM
5 | CC(C)CC12CC3CCC(CNC1=O)C32C (centres undefined) |  | > 100 µM |  | > 100 µM |  | > 100 µM |  | > 100 µM |  | > 100 µM |  | > 100 µM |  | > 100 µM |  | > 100 µM |  | > 100 µM |  | > 100 µM
6 | Cc1nc2c(N3CCCC3)nc(N3CCNCC3)nc2nc1NCc1ccccc1 |  | 7.83 µM and 13.7 µM | 5.46 µM | 10.6 µM and 20.8 µM | 14.2 µM | 9.77 µM and 27.2 µM | 7.17 µM | 14.5 µM and 4.23 µM | 5.81 µM | 11.3 µM and 5.02 µM | 3.34 µM | 15.1 µM and > 21.2 µM | 2.47 µM | 16.8 µM and 3.19 µM | 1.48 µM | 6.06 µM and 6.39 µM | 7.15 µM | 12.9 µM and 3.64 µM | 5.73 µM | 11 µM and 14.5 µM
7 | COc1ccc2c(c1)c(-c1ccc(-c3cn(C)c4ccc(OC)cc34)[nH]1)cn2C | 2.58 µM | 7.21 µM | 1.73 µM | 3.74 µM | 10.9 µM | 49.1 µM | 2.64 µM | 9.03 µM | 4.59 µM | 45.7 µM | 4.13 µM | 29.7 µM | 2.03 µM | 4.39 µM | 1.42 µM | 2.83 µM | 13.7 µM | 38.7 µM | 2.71 µM | 12.2 µM
